Test results: ChEMBL document CHEMBL1201862, “PubChem BioAssay data set” (2004)
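Results reflect a 48-hour exposure of cells in 96-well plates to compound at five concentrations. Here, GI50 denotes the concentration required for 50% inhibition of growth.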 Activity calls are given as the source filed them. Cut-off read from the data, not from the text of the source: active = GI50 up to about 1.1 µM and inactive = higher.

Tests used:
Assay in all cases: NCI tumour cell line growth inhibition, 48 h
[1] = tested on: KM12
[2] = tested on: SN12C
[3] = tested on: MDA-MB-231
[4] = tested on: MDA-N
[5] = tested on: HCC 2998
[6] = tested on: NCI-H226
[7] = tested on: CAKI-1
[8] = tested on: K562
[9] = tested on: 786-0
[10] = tested on: SNB-19
[11] = tested on: SNB-75
[12] = tested on: Malme-3M
[13] = tested on: EKVX
[14] = tested on: SF-295
[15] = tested on: HCT-116
[16] = tested on: OVCAR-8
[17] = tested on: HT-29
[18] = tested on: HOP-62
[19] = tested on: CCRF-CEM
[20] = tested on: A549

Measured: GI50

CC(O)CC(O)(C(F)(F)F)C(F)(F)F (centres undefined)
inactive: [1] > 10 µM | [2] > 10 µM | [3] > 10 µM | [4] > 10 µM | [5] > 10 µM | [6] > 10 µM | [7] > 10 µM | [8] > 10 µM | [9] > 10 µM | [10] > 10 µM | [11] > 10 µM | [12] > 10 µM | [13] > 10 µM | [14] > 10 µM | [15] > 10 µM | [16] > 10 µM | [17] > 10 µM | [18] > 10 µM | [19] > 10 µM | [20] > 10 µM

Cc1nnc2n1-c1ccccc1N(Cc1ccccc1)CC2
inactive: [1] 81.1 µM | [2] 58.7 µM | [3] > 100 µM | [4] 46.2 µM | [5] 79.4 µM | [6] 46.8 µM | [7] 38 µM | [8] 20.3 µM | [9] 87.7 µM | [10] > 100 µM | [11] 52.6 µM | [12] 85.1 µM | [13] 34.2 µM | [14] 75 µM | [15] 46 µM | [16] 56 µM | [17] 40.1 µM | [18] > 100 µM | [19] 17.6 µM | [20] 75.7 µM

C=C[C@H]1CN2CCc3c([nH]c4cc(O)ccc34)[C@@H]2C[C@@H]1C[C@H]1c2[nH]c3ccccc3c2CCN1C
inactive: [1] 3.66 µM | [2] 4.79 µM | [3] 6.05 µM | [4] 1.78 µM | [5] 1.76 µM | [6] 18.7 µM | [7] 6.04 µM | [8] 2.78 µM | [9] 1.84 µM | [10] 6.67 µM | [11] 2.11 µM | [12] 13.8 µM | [13] 7.62 µM | [14] 4.53 µM | [15] 2.42 µM | [16] 6.11 µM | [17] 2.48 µM | [18] 4.45 µM | [19] 1.69 µM | [20] 5.53 µM

C=CC[C@]12C[C@@H](C(=O)OC)N(C(=O)OC)[C@H]1N(S(=O)(=O)c1ccccc1)c1ccccc12
inactive: [1] 85.5 µM | [2] 89.7 µM | [3] 36.2 µM | [4] 41.8 µM | [5] 44.2 µM | [6] > 100 µM | [7] > 100 µM | [8] 41.1 µM | [9] > 100 µM | [10] > 100 µM | [11] 21.5 µM | [12] 91.8 µM | [13] 31.2 µM | [15] 62.2 µM | [16] > 100 µM | [17] > 100 µM | [18] > 100 µM | [19] 82.6 µM | [20] 88.5 µM

O=[N+]([O-])c1cc(Br)cc2cc(Cl)cnc12
inactive: [1] > 100 µM | [2] > 100 µM | [3] > 100 µM | [4] > 100 µM | [5] > 100 µM | [6] > 100 µM | [7] > 100 µM | [8] > 100 µM | [9] > 100 µM | [10] > 100 µM | [11] 31.8 µM | [12] > 100 µM | [13] > 100 µM | [14] 70.6 µM | [15] > 100 µM | [16] 62.4 µM | [17] > 100 µM | [18] > 100 µM | [19] > 100 µM | [20] > 100 µM

CC(C)(CO)CNc1nc(N)nc(Cl)c1N
inactive: [1] > 100 µM | [2] > 100 µM | [3] > 100 µM | [4] > 100 µM | [5] > 100 µM | [6] 67.3 µM | [7] > 100 µM | [8] > 100 µM | [9] > 100 µM | [10] > 100 µM | [11] > 100 µM | [12] > 100 µM | [13] > 100 µM | [14] > 100 µM | [15] > 100 µM | [16] > 100 µM | [17] > 100 µM | [18] > 100 µM | [19] > 100 µM | [20] > 100 µM

CC(=O)O[C@H]1CC[C@@]2(C)C(=CC[C@H]3[C@@H]4CC[C@H](c5cc(C(F)(F)F)n(C(C)=O)n5)[C@@]4(C)CC[C@@H]32)C1
inactive: [1] 8.41 µM | [2] 7.57 µM | [3] 4.98 µM | [4] 11.3 µM | [5] 13.6 µM | [6] 3.24 µM | [7] 12 µM | [8] 3.35 µM | [9] 5.38 µM | [10] 11 µM | [11] 8.22 µM | [12] > 35 µM | [13] 7.28 µM | [14] 4.85 µM | [15] 3.88 µM | [16] 5.57 µM | [17] 4.62 µM | [18] 8.2 µM | [19] 2.98 µM | [20] 6.11 µM
